Measurements: ChEMBL document CHEMBL1201862, “PubChem BioAssay data set” (2004)
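Compound exposure: 48 hours, 5 concentrations, 96-well plates. Abbreviation: GI50, concentration required for 50% inhibition of growth.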 Active and inactive are the calls of the source. No stated cut-off is given here; in the data, active = GI50 up to about 1.1 µM and inactive = higher.

Assays:
Assay in all cases: NCI anticancer screen, dose series, 48 h
LOX IMVI = tested on: LOX IMVI
DMS-273 = tested on: DMS-273
DU-145 = tested on: DU-145
EKVX = tested on: EKVX
SK-MEL-5 = tested on: SK-MEL-5
MDA-N = tested on: MDA-N
SNB-78 = tested on: SNB-78
MCF7 = tested on: MCF7
OVCAR-4 = tested on: OVCAR-4
786-0 = tested on: 786-0
HCT-15 = tested on: HCT-15
SK-MEL-2 = tested on: SK-MEL-2
IGROV-1 = tested on: IGROV-1
DLD-1 = tested on: DLD-1
NCI-H226 = tested on: NCI-H226
NCI-H460 = tested on: NCI-H460
RPMI-8226 = tested on: RPMI-8226
COLO 205 = tested on: COLO 205
RXF 393 = tested on: RXF 393
ACHN = tested on: ACHN
M14 = tested on: M14
UO-31 = tested on: UO-31
OVCAR-3 = tested on: OVCAR-3
SW-620 = tested on: SW-620
A549 = tested on: A549
HT-29 = tested on: HT-29
MDA-MB-435 = tested on: MDA-MB-435
A498 = tested on: A498
OVCAR-8 = tested on: OVCAR-8
NCI-H522 = tested on: NCI-H522
SK-MEL-28 = tested on: SK-MEL-28
SNB-75 = tested on: SNB-75
SF-539 = tested on: SF-539
NCI-H23 = tested on: NCI-H23
U-251 = tested on: U-251
DMS-114 = tested on: DMS-114
K562 = tested on: K562
HOP-62 = tested on: HOP-62
BT-549 = tested on: BT-549
MDA-MB-231 = tested on: MDA-MB-231
M19-MEL = tested on: M19-MEL
SR = tested on: SR
LXFL 529 = tested on: LXFL 529
UACC-257 = tested on: UACC-257
Hs-578T = tested on: Hs-578T
TK-10 = tested on: TK-10
KM-20L2 = tested on: KM-20L2
HOP-92 = tested on: HOP-92
SNB-19 = tested on: SNB-19
NCI/ADR-RES = tested on: NCI/ADR-RES
T47D = tested on: T47D
SK-OV-3 = tested on: SK-OV-3
MOLT-4 = tested on: MOLT-4
Malme-3M = tested on: Malme-3M
UACC-62 = tested on: UACC-62
SF-295 = tested on: SF-295
HL-60 = tested on: HL-60
CCRF-CEM = tested on: CCRF-CEM
KM12 = tested on: KM12
CAKI-1 = tested on: CAKI-1
HCT-116 = tested on: HCT-116
HCC 2998 = tested on: HCC 2998
SN12C = tested on: SN12C
OVCAR-5 = tested on: OVCAR-5
PC-3 = tested on: PC-3
SF-268 = tested on: SF-268
XF498 = tested on: XF498

Measured: GI50

N#CC(C#N)SCc1ccccc1
31.1 µM: HCT-15
active: SR 1.11 µM
inactive: LOX IMVI 5.11 µM | DMS-273 39.2 µM | DU-145 22.9 µM | EKVX > 96.2 µM | SK-MEL-5 11.9 µM | MDA-N 1.63 µM | SNB-78 33 µM | MCF7 4.55 µM | OVCAR-4 23.7 µM | 786-0 15.7 µM | SK-MEL-2 7.36 µM | IGROV-1 23.1 µM | DLD-1 36.6 µM | NCI-H226 30.1 µM | NCI-H460 14.7 µM | RPMI-8226 6.18 µM | COLO 205 15.6 µM | RXF 393 26.8 µM | ACHN 40.4 µM | M14 11.5 µM | UO-31 20.1 µM | OVCAR-3 23.8 µM | SW-620 4.59 µM | A549 16.6 µM | HT-29 27.4 µM | MDA-MB-435 17.6 µM | A498 > 71.4 µM | OVCAR-8 15 µM | NCI-H522 5.86 µM | SK-MEL-28 36.2 µM | SNB-75 38 µM | SF-539 5.19 µM | NCI-H23 10.5 µM | U-251 19.5 µM | DMS-114 24.4 µM | K562 1.12 µM | HOP-62 15.7 µM | BT-549 1.85 µM | MDA-MB-231 2.66 µM | M19-MEL 54.1 µM | LXFL 529 33.7 µM | UACC-257 23.1 µM | Hs-578T 26.5 µM | TK-10 26.5 µM | KM-20L2 32.3 µM | HOP-92 15.5 µM | SNB-19 21 µM | NCI/ADR-RES 6.64 µM | T47D 18.5 µM | SK-OV-3 24.4 µM | MOLT-4 1.67 µM | Malme-3M 47.8 µM | UACC-62 34.4 µM | SF-295 16.8 µM | HL-60 4.44 µM | CCRF-CEM 1.7 µM | KM12 19.7 µM | CAKI-1 17.7 µM | HCT-116 6.55 µM | HCC 2998 61.2 µM | SN12C 8.3 µM | OVCAR-5 17.3 µM | PC-3 2.79 µM | SF-268 29.4 µM

CC(=O)O[C@@H]1CC(C)C2CC2C2=C(C(O)OC2O)[C@@H]1C(C)CCC=C(C)C (stereo partly drawn)
inactive: LOX IMVI 20.8 µM | DMS-273 21.4 µM | EKVX 40 µM | SK-MEL-5 25.3 µM | SNB-78 30.5 µM | OVCAR-4 24.4 µM | 786-0 21.4 µM | SK-MEL-2 29.9 µM | IGROV-1 25.1 µM | DLD-1 32.4 µM | NCI-H226 20.1 µM | NCI-H460 20 µM | RPMI-8226 25.2 µM | COLO 205 18.2 µM | RXF 393 17.3 µM | ACHN 31.7 µM | M14 31 µM | UO-31 22.2 µM | SW-620 23 µM | A549 22.7 µM | HT-29 19 µM | A498 35.7 µM | OVCAR-8 27 µM | NCI-H522 15.3 µM | SK-MEL-28 36.7 µM | SNB-75 26.9 µM | SF-539 18.9 µM | NCI-H23 22.2 µM | U-251 19.4 µM | DMS-114 23.2 µM | K562 23.9 µM | HOP-62 26.9 µM | M19-MEL 22.8 µM | LXFL 529 27.6 µM | UACC-257 24.1 µM | TK-10 33.3 µM | KM-20L2 18.7 µM | HOP-92 12.8 µM | SNB-19 33.7 µM | MOLT-4 24.6 µM | Malme-3M 27.8 µM | UACC-62 26.3 µM | HL-60 20.4 µM | CCRF-CEM 24.8 µM | CAKI-1 26.4 µM | HCT-116 18.4 µM | HCC 2998 20.8 µM | SN12C 18.4 µM | OVCAR-5 18.3 µM | SF-268 25.8 µM | XF498 19 µM
22 µM: HCT-15
